Assay results published in article PMC2680961, “Homologous desensitization of signalling by the alpha (α) isoform of the human thromboxane A2 receptor: A specific role for nitric oxide signalling” (Biochimica et Biophysica Acta, 2007).
Where a chain is given by its changes, count along the chain named.

How the values were obtained:
Assay type in all cases: cell-based
TPα^S329,331A = molecular target: T1, TPα^S329,331A (Homo sapiens, UniProt P21731, S329A/S331A); experiment: Intracellular calcium mobilization, HEK.TPα^S329,331A cells; details: for Δ[Ca2+]i, U46619-induced: HEK.TPα^S329,331A
T1 construct: expressed in transfected cells
T1 sequence (P21731 1-343 S329A/S331A): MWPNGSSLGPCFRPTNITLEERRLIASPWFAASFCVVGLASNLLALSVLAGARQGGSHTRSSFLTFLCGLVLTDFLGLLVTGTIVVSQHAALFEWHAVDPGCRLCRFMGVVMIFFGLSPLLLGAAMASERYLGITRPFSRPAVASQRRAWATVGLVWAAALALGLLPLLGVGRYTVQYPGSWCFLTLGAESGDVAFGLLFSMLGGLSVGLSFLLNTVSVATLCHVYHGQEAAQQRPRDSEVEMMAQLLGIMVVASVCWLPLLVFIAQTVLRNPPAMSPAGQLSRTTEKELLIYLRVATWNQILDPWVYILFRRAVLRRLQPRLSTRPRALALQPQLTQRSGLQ
Protocol: (§1) Measurement of intracellular calcium mobilization ([Ca^2+]i) in FURA2/AM preloaded HEK 293 cell lines (2 × 10^6 cells/dish), each transiently co-transfected with pADVA (10 μg), and pCMV:Gαq (25 μg), was carried out as previously described. To investigate the effect of GRK2/βARK1 on TP-mediated [Ca^2+]i mobilization, HEK.TPα or HEK.TPβ cells (2 × 10^6 cells/dish) were co-transfected with pADVA (10 μg), pCMV:Gαq (25 μg) along with pRK5:βARK1^495–689 (25 μg), encoding a dominant negative form of GRK2/βARK1[39]. Approximately 48 h post-transfection, cells were harvested by scraping, washed twice in ice-cold PBS and resuspended in HBSSHB (modified Ca^2+/Mg^2+-free Hank's buffered salt solution, containing 10 μM HEPES, pH 7.67, 0.1% bovine serum albumin (BSA)) buffer at 10^7 cells/ml and incubated in the dark with 5 μM FURA2/AM for 45 min at 37 °C. […] For each measurement of [Ca^2+]i mobilization, aliquots of cells were diluted to 0.825 × 10^6 cells/ml in HBSSHB, 1 mM CaCl2 and FURA2 fluorescence was recorded (2 ml aliquots of cells) at 37^ °C with gentle stirring with a Perkin Elmer-Cetus LS50-B spectrofluorometer at excitation wavelengths of 340 nm and 380 nm and emission wavelength of 510 nm, respectively.
(§2) Cells were stimulated with the TP agonist U46619 (1 μM) and changes in [Ca^2+]i mobilization were monitored as a function of time. To assess agonist-mediated homologous desensitization, cells (0.825 × 10^6 cells/ml; 2 ml per assay) were stimulated with 1 μM U46619 (Primary stimulation) or, as a control, with the vehicle for 4 min; thereafter, cells were collected by centrifugation (900×g, 5 min); were washed twice in 2 ml HBSSHB, 1 mM CaCl2; and finally resuspended in 2 ml HBSSHB,1 mM CaCl2 and were left to recover over various time intervals (ranging from 0 to 60 min); thereafter, cells re-stimulated with 1 μM U46619 (Secondary stimulation) and changes in [Ca^2+]i mobilization were monitored as a function of time. […]

TPα^S331A = molecular target: T2, TPα^S331A (Homo sapiens, UniProt P21731, S331A); experiment: Intracellular calcium mobilization, HEK.TPα^S331A cells; details: for Δ[Ca2+]i, U46619-induced: HEK.TPα^S331A
T2 construct: expressed in transfected cells
T2 sequence (P21731 1-343 S331A): T1 sequence (P21731 1-343 S329A/S331A) with A329S
Protocol: as §1, §2

TP^S145A,Δ328 = molecular target: T3, TP^S145A,Δ328 (Homo sapiens, UniProt P21731, S145A); experiment: Intracellular calcium mobilization, HEK.TP^S145A,Δ328 cells
T3 construct: expressed in transfected cells
T3 sequence (P21731 1-328 S145A): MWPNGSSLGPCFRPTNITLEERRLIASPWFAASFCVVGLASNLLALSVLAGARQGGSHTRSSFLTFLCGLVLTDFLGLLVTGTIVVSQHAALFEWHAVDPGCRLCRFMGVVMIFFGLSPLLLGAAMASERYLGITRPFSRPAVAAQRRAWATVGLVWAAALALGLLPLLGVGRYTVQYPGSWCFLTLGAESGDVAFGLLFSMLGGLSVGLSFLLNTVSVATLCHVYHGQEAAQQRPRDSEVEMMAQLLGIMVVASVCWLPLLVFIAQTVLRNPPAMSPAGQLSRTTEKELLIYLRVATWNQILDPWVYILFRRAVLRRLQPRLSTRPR
Protocol: as §1, with “GRK2/βARK1[39].” for “GRK2/βARK1[39]. Approximately 48 h post-transfection, cells were harvested by scraping, washed twice in ice-cold PBS and resuspended in HBSSHB (modified Ca^2+/Mg^2+-free Hank's buffered salt solution, containing 10 μM HEPES, pH 7.67, 0.1% bovine serum albumin (BSA)) buffer at 10^7 cells/ml and incubated in the dark with 5 μM FURA2/AM for 45 min at 37 °C.”
Cells were stimulated with the TP agonist U46619 (1 μM) and changes in [Ca^2+]i mobilization were monitored as a function of time. […]
The vehicle had no effect on U46619-mediated [Ca^2+]i mobilization. Calibration of the signal was performed in each sample by adding 0.2% Triton X-100 to obtain the maximal fluorescence ratio (Rmax) and then 1 mM EGTA to obtain the minimal fluorescence ratio (Rmin). […]

[1] = secondary 1 μM U46619 at 15 min

Δ[Ca2+]i, U46619-induced (TPα^S329,331A; primary 1 μM U46619 4 min): 176 ± 9.4 nM | Δ[Ca2+]i, U46619-induced (TPα^S329,331A; [1]): 63 ± 4.4 nM | secondary U46619 [Ca2+]i response relative to primary response (TPα^S329,331A; printed as TPα^S239,331A, Fig. 6A and B): 36% | Δ[Ca2+]i, U46619-induced (TPα^S331A; primary 1 μM U46619 4 min): 207 ± 9.1 nM | Δ[Ca2+]i, U46619-induced (TPα^S331A; [1]): 80 ± 6.8 nM | secondary U46619 [Ca2+]i response relative to primary response (TPα^S331A; TPα^S331A): 39% | Δ[Ca2+]i, U46619-induced (TP^S145A,Δ328; primary 1 μM U46619 4 min): 174 ± 7.7 nM | Δ[Ca2+]i, U46619-induced (TP^S145A,Δ328; [1]): 170 ± 9.9 nM
Structure (SMILES): CCCCC[C@H](O)/C=C/[C@@H]1[C@@H](C/C=C\CCCC(=O)O)[C@H]2CO[C@@H]1C2 [U46619]
